According to patent US20230372498A1, “PLK1 SELECTIVE DEGRADATION INDUCING COMPOUND” (UPPTHERA, priority 2020, published 2023):

Biological target: T1, PLK1 (Homo sapiens, UniProt P53350)
T1 construct: endogenous in cells; host or cells: HeLa
Assay: PLK1 protein degradation in HeLa cells, Western blotting (PLK1/GAPDH ratio)
Assay type: cell-based
Conditions: 6 hours compound incubation; for Dmax: thymidine block and release, 10 points three-fold from 3 μM, PLK1 to GAPDH ratio, read-out: Dmax
Outline: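 Thymidine-synchronised HeLa cells (2 mM, 24 h) released 4 h into complete medium, then treated 6 h with compound in 10-point 3-fold dilutions from 3 μM. RIPA lysates (15 μg protein) run on SDS-PAGE; PLK1 Western blot normalised to GAPDH.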

T1 sequence (P53350 whole entry): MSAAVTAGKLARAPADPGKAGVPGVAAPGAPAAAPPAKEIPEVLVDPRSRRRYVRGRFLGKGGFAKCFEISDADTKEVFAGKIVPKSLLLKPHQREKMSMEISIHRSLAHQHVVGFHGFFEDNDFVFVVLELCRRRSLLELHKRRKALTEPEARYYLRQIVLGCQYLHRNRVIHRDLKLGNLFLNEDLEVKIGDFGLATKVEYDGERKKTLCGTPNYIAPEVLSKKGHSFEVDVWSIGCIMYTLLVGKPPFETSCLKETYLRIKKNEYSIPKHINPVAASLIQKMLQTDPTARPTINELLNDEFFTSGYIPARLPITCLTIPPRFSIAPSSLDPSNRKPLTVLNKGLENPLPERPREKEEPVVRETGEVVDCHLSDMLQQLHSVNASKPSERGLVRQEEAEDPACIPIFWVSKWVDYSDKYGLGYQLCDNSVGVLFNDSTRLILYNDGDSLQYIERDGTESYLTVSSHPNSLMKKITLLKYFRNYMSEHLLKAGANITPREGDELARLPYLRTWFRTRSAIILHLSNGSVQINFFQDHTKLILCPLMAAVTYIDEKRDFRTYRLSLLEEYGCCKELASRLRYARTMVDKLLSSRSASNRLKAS

Row | DC50 (measured only if the grade of Dmax is A or B) [nM] | Dmax [%] | Compound
1 | ≤ 500 | 60 to 80 | COc1cc(C(=O)N[C@H]2CCN(CCOCCNC(=O)CNc3cccc4c3C(=O)N(C3CCC(=O)NC3=O)C4=O)C2)c(F)cc1Nc1ncc2c(n1)N(C1CCCC1)CC(F)(F)C(=O)N2C (stereo partly drawn) [Example 112, 4-((9-cyclopentyl-7,7-difluoro-5-methyl-6-oxo-6,7,8,9-tetrahydro-5H-pyrimido[4,5-b][1,4]diazepin-2-yl)amino)-N-((3S)-1-(2-(2-(2-((2-(2,6-dioxopiperidin-3-yl)-1,3-dioxoisoindolin-4-yl)amino)acetamido)ethoxy)ethyl)pyrrolidin-3-yl)-2-fluoro-5-methoxybenzamide]
2 | – | < 60 | COc1cc(C(=O)NCCCCCc2cccc3c2CN(C2CCC(=O)NC2=O)C3=O)c(F)cc1Nc1ncc2c(n1)N(C1CCCC1)CC(F)(F)C(=O)N2C (stereo not shown) [Example 165, 4-((9-cyclopentyl-7,7-difluoro-5-methyl-6-oxo-6,7,8,9-tetrahydro-5H-pyrimido[4,5-b][1,4]diazepin-2-yl)amino)-N-(5-(2-(2,6-dioxopiperidin-3-yl)-1-oxoisoindolin-4-yl)pentyl)-2-fluoro-5-methoxybenzamide]
3 | – | 60 to 80 | COc1cc(C(=O)NCCCCCCCc2cccc3c2CN(C2CCC(=O)NC2=O)C3=O)c(F)cc1Nc1ncc2c(n1)N(C1CCCC1)CC(F)(F)C(=O)N2C (stereo not shown) [Example 166, 4-((9-cyclopentyl-7,7-difluoro-5-methyl-6-oxo-6,7,8,9-tetrahydro-5H-pyrimido[4,5-b][1,4]diazepin-2-yl)amino)-N-(7-(2-(2,6-dioxopiperidin-3-yl)-1-oxoisoindolin-4-yl)heptyl)-2-fluoro-5-methoxybenzamide]
4 | – | 60 to 80 | COc1cc(C(=O)NCCOCCOCCNc2cccc3c2C(=O)N(C2CCC(=O)NC2=O)C3=O)c(F)cc1Nc1ncc2c(n1)N(C(C)C)CC(F)(F)C(=O)N2C (stereo not shown) [Example 167, 4-((7,7-difluoro-9-isopropyl-5-methyl-6-oxo-6,7,8,9-tetrahydro-5H-pyrimido[4,5-b][1,4]diazepin-2-yl)amino)-N-(2-(2-(2-((2-(2,6-dioxopiperidin-3-yl)-1,3-dioxoisoindolin-4-yl)amino)ethoxy)ethoxy)ethyl)-2-fluoro-5-methoxybenzamide]
5 | – | ≥ 80 | COc1cc(C(=O)NCCOCCOCCNc2cccc3c2C(=O)N(C2CCC(=O)NC2=O)C3=O)ccc1Nc1ncc2c(n1)N(C1CCCC1)CC(F)(F)C(=O)N2C (stereo not shown) [Example 168, 4-((9-cyclopentyl-7,7-difluoro-5-methyl-6-oxo-6,7,8,9-tetrahydro-5H-pyrimido[4,5-b][1,4]diazepin-2-yl)amino)-N-(2-(2-(2-((2-(2,6-dioxopiperidin-3-yl)-1,3-dioxoisoindolin-4-yl)amino)ethoxy)ethoxy)ethyl)-3-methoxybenzamide]
6 | – | ≥ 80 | COc1cc(C(=O)NCCCOCCCOCCNc2cccc3c2C(=O)N(C2CCC(=O)NC2=O)C3=O)ccc1Nc1ncc2c(n1)N(C1CCCC1)CC(F)(F)C(=O)N2C (stereo not shown) [Example 169, 4-((9-cyclopentyl-7,7-difluoro-5-methyl-6-oxo-6,7,8,9-tetrahydro-5H-pyrimido[4,5-b][1,4]diazepin-2-yl)amino)-N-(3-(3-(2-((2-(2,6-dioxopiperidin-3-yl)-1,3-dioxoisoindolin-4-yl)amino)ethoxy)propoxy)propyl)-3-methoxybenzamide]
7 | – | ≥ 80 | CN1C(=O)C(F)(F)CN(C2CCCC2)c2nc(Nc3ccc(C(=O)NCCCOCCCOCCNc4cccc5c4C(=O)N(C4CCC(=O)NC4=O)C5=O)cc3)ncc21 (stereo not shown) [Example 170, 4-((9-cyclopentyl-7,7-difluoro-5-methyl-6-oxo-6,7,8,9-tetrahydro-5H-pyrimido[4,5-b][1,4]diazepin-2-yl)amino)-N-(3-(3-(2-((2-(2,6-dioxopiperidin-3-yl)-1,3-dioxoisoindolin-4-yl)amino)ethoxy)propoxy)propyl)benzamide]
8 | – | ≥ 80 | COc1cc(C(=O)NCCCOCCCOCCNc2cccc3c2CN(C2CCC(=O)NC2=O)C3=O)ccc1Nc1ncc2c(n1)N(C1CCCC1)CC(F)(F)C(=O)N2C (stereo not shown) [Example 171, 4-((9-cyclopentyl-7,7-difluoro-5-methyl-6-oxo-6,7,8,9-tetrahydro-5H-pyrimido[4,5-b][1,4]diazepin-2-yl)amino)-N-(3-(3-(2-((2-(2,6-dioxopiperidin-3-yl)-1-oxoisoindolin-4-yl)amino)ethoxy)propoxy)propyl)-3-methoxybenzamide]
9 | – | ≥ 80 | COc1cc(C(=O)NC2CCN(CCOCCOCCOCCOCCOCCOCCOCCNc3cccc4c3C(=O)N(C3CCC(=O)NC3=O)C4=O)CC2)c(F)cc1Nc1ncc2c(n1)N(C1CCCC1)CC(F)(F)C(=O)N2C (stereo not shown) [Example 172, 4-((9-cyclopentyl-7,7-difluoro-5-methyl-6-oxo-6,7,8,9-tetrahydro-5H-pyrimido[4,5-b][1,4]diazepin-2-yl)amino)-N-(1-(23-((2-(2,6-dioxopiperidin-3-yl)-1,3-dioxoisoindolin-4-yl)amino)-3,6,9,12,15,18,21-heptaoxatricosyl)piperidin-4-yl)-2-fluoro-5-methoxybenzamide]
10 | – | ≥ 80 | COc1cc(C(=O)N[C@H]2CCN(C(=O)CCCCN3CCN(c4cccc5c4C(=O)N(C4CCC(=O)NC4=O)C5=O)CC3)C2)c(F)cc1Nc1ncc2c(n1)N(C1CCCC1)CC(F)(F)C(=O)N2C (stereo partly drawn) [Example 173, 4-((9-cyclopentyl-7,7-difluoro-5-methyl-6-oxo-6,7,8,9-tetrahydro-5H-pyrimido[4,5-b][1,4]diazepin-2-yl)amino)-N-((3S)-1-(5-(4-(2-(2,6-dioxopiperidin-3-yl)-1,3-dioxoisoindolin-4-yl)piperazin-1-yl)pentanoyl)pyrrolidin-3-yl)-2-fluoro-5-methoxybenzamide]
11 | – | ≥ 80 | COc1cc(C(=O)N[C@H]2CCN(C(=O)CCN3CCN(c4ccc5c(c4)C(=O)N(C4CCC(=O)NC4=O)C5=O)CC3)C2)ccc1Nc1ncc2c(n1)N(C1CCCC1)CC(F)(F)C(=O)N2C (stereo partly drawn) [Example 174, 4-((9-cyclopentyl-7,7-difluoro-5-methyl-6-oxo-6,7,8,9-tetrahydro-5H-pyrimido [4,5-b][1,4]diazepin-2-yl)amino)-N-((3S)-1-(3-(4-(2-(2,6-dioxopiperidin-3-yl)-1,3-dioxoisoindolin-5-yl)piperazin-1-yl)propanoyl)pyrrolidin-3-yl)-3-methoxybenzamide]
12 | – | ≥ 80 | COc1cc(C(=O)N[C@H]2CCN(C(=O)CCCN3CC4(C3)CN(c3cccc5c3C(=O)N(C3CCC(=O)NC3=O)C5=O)C4)C2)c(F)cc1Nc1ncc2c(n1)N(C1CCCC1)CC(F)(F)C(=O)N2C (stereo partly drawn) [Example 175, 4-((9-cyclopentyl-7,7-difluoro-5-methyl-6-oxo-6,7,8,9-tetrahydro-5H-pyrimido[4,5-b][1,4]diazepin-2-yl)amino)-N-((3S)-1-(4-(6-(2-(2,6-dioxopiperidin-3-yl)-1,3-dioxoisoindolin-4-yl)-2,6-diazaspiro[3.3]heptan-2-yl)butanoyl)pyrrolidin-3-yl)-2-fluoro-5-methoxybenzamide]
